In patent US20140080762A1, “HYD1 PEPTIDES FOR RELAPSED CANCER” (H. LEE MOFFITT CANCER CENTER AND RESEARCH INSTITUTE, INC., priority 2011, published 2014):
Entries after “also recorded” stand apart in the source; their conditions may differ.

Legend:
U226 cells = assay: Combination cytotoxicity assay with HYD1 in U226 cells; type: cell-based; conditions: in vitro
Excerpt: FIG. 8. Table of combination index (CI) summary for combinations of HYD1 and SAHA, etoposide, arsenic, Vel, or doxorubicin in U226 cells.

[1] = system: CD34+ hematopoietic progenitor cells; assay: Colony forming assay, normal CD34+ hematopoietic progenitor cells; type: cell-based; conditions: HYD1 12.5 and 50 μg/ml for 2 hrs; colonies counted day 12
Experimental: (§1) CD34^+ hematopoietic progenitor cells were isolated from peripheral blood and treated for 2 hrs with HYD1 (12.5 and 50 μg/ml) and then plated in a methylcellulose media supplemented with growth factors supporting myeloid and erythroid colonies. Colonies were counted on day 12 post-plating. […] In addition, the inventors evaluated the toxicity of HYD1 in normal peripheral blood mononuclear cells (PBMC).

[2] = system: peripheral blood mononuclear cells (PBMC); assay: Cell death in normal peripheral blood mononuclear cells; type: cell-based; conditions: six hours treatment, up to doses of 50 μg/ml
Experimental: as §1

H929 engrafted tumor = assay: SCID-hu in vivo model, H929 engrafted tumor; conditions: 8 mg/kg i.p. daily for 21 days
Experimental: The SCID-hu model consists of implanting human fetal bone into the mammary mouse fat pad of SCID mice. The myeloma cells are subsequently injected directly into the bone and myeloma cells will engraft only in the area of the human bone. Human paraprotein can be measured in the mouse sera and levels represent a good marker for evaluating tumor burden and response to chemotherapy. Circulating kappa levels were measured on day 28 (baseline reading before peptide treatment), 35, 42 and 49 by ELISA, and tumor burden was determined by calculating the kappa levels on day X divided by the baseline kappa levels recorded on day 28 for each mouse. Shown in FIG. 2A is the antitumor response of H929 engrafted tumor when mice were given 8 mg/kg intraperitoneal (i.p.) injections daily for 21 days starting on day 28. […] Mice were humanely euthanized at […] as several control mice had tumor protruding from the bone implant. […] The inventors anticipate that because HYD1 induces cell death independent of apoptosis and blocks cell adhesion mediated drug resistance to standard therapy that the most dramatic in vivo activity will be realized when combined with standard therapy.

MM cells = assay: Characterisation of HYD1-induced cell death in MM cells (apoptosis markers, autophagy, NAC protection); type: cell-based
H929-60 cells [3] = assay: Cross-resistance of H929-60 cells to standard myeloma agents (annexin V FITC/PI, IC50); type: cell-based, human; conditions: 24 hours; p>0.05
Experimental: FIG. 19. H929-60 cells are not resistant to standard myeloma therapies. H929 and H929-60 cells were treated with increasing concentrations of melphalan or Velcade for 24 hours. After 24 hours, cells were stained with annexin V FITC/P1 for 45 minutes and acquired on FACScan. IC50 values were determined by linear regressions. […] Shown in the table of FIG. 19 is the mean and standard deviations of three independent experiments.

H929-60 cells [4] = assay: HS-5 stroma co-culture model of drug resistance, H929-60 cells; type: cell-based, human
Experimental: FIGS. 15A-15C. […] FIG. 15A: H929 and H929-60 pre-incubated with CMFDA dye were adhered to 10,000 HS-5 cells for 2 hours. After 2 hours unadherent cells were removed and the fluorescence intensity was measured on a fluorescent plate reader. FIGS. 15B and 15C: H929 and H929-60 cells were adhered to HS-5 GFP cells for 24 hours. After 24 hours samples were treated with 15 μM melphalan or 16 nM velcade for 24 hours. Cell death was analyzed using a FACScalibur with the GFP expressing HS-5 cells being excluded from the analysis. In FIGS. 15A-15C, a representative of three independent experiments was shown. (*=p<0.05, n=9 or#=p>0.05, n=9 Students t-test).
The inventors reasoned that acquisition of resistance towards HYD1, which correlated with reduced functional binding to fibronectin, VCAM-1, and HS-5 stromal cells, would likely result in a compromised CAMDR phenotype. To test this premise, the inventors utilized the HS-5 co-culture model of drug resistance. H929 and the HYD1 resistant variant H929-60 cells were treated with either melphalan or velcade in the presence or absence of HS-5/GFP bone marrow stromal cells. As shown in FIGS. 15B and 15C, the HYD1 resistant cell line was not resistant in the co-culture bone marrow stroma model to melphalan or velcade, respectively.

CD44 = assay: Biotin-HYD1 pull-down assay (Mass-Spec, Western blot), CD44 in H929 membrane extract; type: binding, human; conditions: NeutrAvidin beads
Experimental: The first lane is 30 μg of membrane extract only. CD44 was detected by western blot analysis using a pan-CD44 antibody.
Samples were spun at 15000 XG for minutes at 4 degrees and the supernatant was removed and membranes were pelleted at 100,000Xg for 15 minutes. Membrane pellets were solubilized in AP buffer containing 0.2% NP40 and protein was quantified using BCA reagents (Pierce, Rockford, Ill.). […] After one hour, the beads were washed twice in AP buffer and 50 ug of membrane extracts were added to a total volume of 500 μl and incubated with beads overnight at 4 degrees. The beads were washed five times in AP buffer containing 0.2% NP40 and samples were suspended in SDS-PAGE sample buffer and bound proteins were resolved by SDSPAGE.
NeutrAvidin beads were used to reduce non-specific binding. […] The binding experiment was repeated using 300 ug of membrane extract. […] The inventors next determined whether α4 integrin could be detected by western blot analysis. […] To determine whether CD44 was indeed a direct binding partner of CD44 the inventors used recombinant CD44 and an ELISA as a readout of binding. The recombinant CD44 protein (purchased from Abnova) corresponds to Isoform 4 on Swiss Prot. The amino acid sequence is missing 224-266 and 223 is substituted S for T relative to the longest CD44 variant referred to as epican.

recombinant CD44 = biological target: T1, recombinant CD44 (Homo sapiens, UniProt P16070); assay: Direct ELISA, recombinant CD44 binding to immobilized biotin-HYD1; conditions: NeutrAvidin coated 96-well plates
T1 construct: purchased Abnova
T1 sequence (P16070 21-699 isoform P16070-4): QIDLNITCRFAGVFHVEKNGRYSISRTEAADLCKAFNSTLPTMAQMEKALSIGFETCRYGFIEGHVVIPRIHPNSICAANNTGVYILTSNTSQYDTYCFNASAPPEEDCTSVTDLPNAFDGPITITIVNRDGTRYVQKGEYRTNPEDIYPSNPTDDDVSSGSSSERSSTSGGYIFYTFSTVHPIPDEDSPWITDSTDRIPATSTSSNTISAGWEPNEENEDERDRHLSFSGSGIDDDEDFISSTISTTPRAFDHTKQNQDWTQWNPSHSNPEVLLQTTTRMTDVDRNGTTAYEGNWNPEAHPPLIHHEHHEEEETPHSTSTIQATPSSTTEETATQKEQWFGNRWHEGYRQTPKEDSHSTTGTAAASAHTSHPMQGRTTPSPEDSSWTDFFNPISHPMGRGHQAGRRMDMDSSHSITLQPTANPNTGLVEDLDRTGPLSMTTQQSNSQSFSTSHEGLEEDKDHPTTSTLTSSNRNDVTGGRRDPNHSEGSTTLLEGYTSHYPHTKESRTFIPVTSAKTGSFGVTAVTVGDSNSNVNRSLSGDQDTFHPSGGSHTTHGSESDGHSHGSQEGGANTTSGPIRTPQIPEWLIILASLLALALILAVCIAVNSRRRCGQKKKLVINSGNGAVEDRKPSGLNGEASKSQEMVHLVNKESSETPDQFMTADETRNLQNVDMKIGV
Experimental: The pull down assay was directly coupled with an unbiased Mass-Spec analysis to identify HYD1 binding partners. […] NeutrAvidin beads were used to reduce non-specific binding. […] The binding experiment was repeated using 300 ug of membrane extract. […] The inventors next determined whether α4 integrin could be detected by western blot analysis. […] To determine whether CD44 was indeed a direct binding partner of CD44 the inventors used recombinant CD44 and an ELISA as a readout of binding. The recombinant CD44 protein (purchased from Abnova) corresponds to Isoform 4 on Swiss Prot. The amino acid sequence is missing 224-266 and 223 is substituted S for T relative to the longest CD44 variant referred to as epican.

H929-60 cells [5] = assay: FAM-HYD1 binding to cells by FACS, H929-60 cells; type: cell-based, human
Experimental: (§2) FIGS. 18A, 18B-1, 18B-2, and 18B-3. […] FIG. 18A: H929 and H929-60 cells (4×10^5 cells/ml) were incubated with FAM-HYD1 (6.25, 12.5 μg/ml) on ice for 15 minutes. FACS analysis was used to determine the geometric mean of fluorescence of FAM-HYD1 bound to H929 and H929-60 cells. A representative of three independent experiments is shown. A student's t-test was performed to determine significance (* denotes p<0.05). FIGS. 18B-1, 18B-2, and 18B-3: When the dose of FAM-HYD1 was increased to 12.5 μg/ml FAM-HYD1 binding to plasma membrane was detected in the resistant cell line as determine by confocal microscopy.

H929 cells = assay: Confocal microscopy of FAM-HYD1 binding, H929 cells; type: cell-based, human; conditions: 6.25 μg/ml FAM-HYD1, 10 minutes
Experimental: FIGS. 11A-11E. […] FIG. 11B: Loss of mitochondrial membrane […] was determined using DiOC6 staining following 2 hours of HYD1 treatment in H929 and H929-60 (* denotes p<0.05 n=9, Student's t-test). FIG. 11C: ATP levels were determined in the H929 and H929-60 cell lines following 6 hours of HYD1 (50 ug/ml) treatment. (* denotes p<0.05 and # denotes p>0.05, n=9, Student's t-test). FIGS. 11D and 11E: H929 cell (FIG. 11D) and H929-60 cells (FIG. 11E) were stained with Alexa Fluor 594 wheat germ agglutinin (WGA) and Hoechst 33342 for 30 minutes. 6.25 μg/ml FAM-HYD1 was added 10 minutes before images were taken. The experiment was repeated 3 independent times and shown is a representative experiment.
(§3) To assess whether (a) HYD1 bound the cell surface and (b) whether binding of HYD1 was reduced in the resistant cell line FAM-HYD1 was used to image peptide binding in the parental and resistant cell line by confocal microscopy. A 35 mm glass bottom microwell dishes (Mattek cultureware, Ashland, Mass.) were plated with 10 uL Cell-tak (BD biosciences) per manufacture's instructions. Media containing 1 uM Alexa Fluor 594 wheat germ agglutinin (WGA) (Invitrogen) and 20 uM Hoechst 33342 (Invitrogen) was placed back in the plates and the samples were incubated for 30 minutes. After 30 minutes, the cells were washed and treated with media containing 6.25 μg/ml FAM conjugated HYD1 for 10 minutes. […]

H929-60 cells [6] = assay: Confocal microscopy of FAM-HYD1 binding, H929-60 cells; type: cell-based, human; conditions: 12.5 μg/ml FAM-HYD1, confocal microscopy
Experimental: as §2, §3

[7] = biological target: human CD44 ectodomain (human) (UniProt P16070); assay: SPR; experiment 11/29
Chain of human CD44 ectodomain (human) (P16070 21-649): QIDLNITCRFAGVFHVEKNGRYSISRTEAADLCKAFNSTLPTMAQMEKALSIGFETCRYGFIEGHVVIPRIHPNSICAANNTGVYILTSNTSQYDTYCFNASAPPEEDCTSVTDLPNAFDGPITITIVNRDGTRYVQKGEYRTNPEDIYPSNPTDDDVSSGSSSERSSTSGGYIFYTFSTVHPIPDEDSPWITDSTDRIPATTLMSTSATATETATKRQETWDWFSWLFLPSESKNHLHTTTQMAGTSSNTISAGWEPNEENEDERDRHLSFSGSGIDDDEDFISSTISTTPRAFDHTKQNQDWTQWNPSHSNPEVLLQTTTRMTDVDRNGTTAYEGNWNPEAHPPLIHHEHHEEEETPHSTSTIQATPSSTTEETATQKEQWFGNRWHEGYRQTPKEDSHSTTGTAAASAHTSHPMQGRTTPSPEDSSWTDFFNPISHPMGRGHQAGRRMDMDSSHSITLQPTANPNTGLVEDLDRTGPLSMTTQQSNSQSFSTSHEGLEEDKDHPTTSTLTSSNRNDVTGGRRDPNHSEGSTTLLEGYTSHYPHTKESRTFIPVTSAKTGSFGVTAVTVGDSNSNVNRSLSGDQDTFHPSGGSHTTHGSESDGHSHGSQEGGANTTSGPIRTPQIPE

[8] = biological target: human CD44 ectodomain (human) (UniProt P16070); assay: SPR; experiment 12/05
[9] = biological target: human CD44 ectodomain (human) (UniProt P16070); assay: SPR; experiment 12/09
[10] = biological target: human CD44 ectodomain (human) (UniProt P16070); assay: SPR; experiment 12/05 LF
[11] = system: epithelial prostate carcinoma cells; conditions: cited from earlier work

COc1cccc2c1C(=O)c1c(O)c3c(c(O)c1C2=O)C[C@@](O)(C(=O)CO)C[C@@H]3O[C@H]1C[C@H](N)[C@H](O)[C@H](C)O1 [Doxorubicin]
synergy in combination with HYD1 (combination index) (U226 cells): greatest levels of synergy; also recorded: most synergistic

CC[C@@H](C)[C@@H](NC(=O)[C@H](N)CCCCN)C(=O)N[C@H](CCCCN)C(=O)N[C@H](CCSC)C(=O)N[C@@H](C(=O)N[C@@H](C(=O)N[C@H](CO)C(=O)N[C@H](Cc1c[nH]c2ccccc12)C(=O)N[C@H](CCCCN)C(=O)NCC(=O)O)[C@H](C)CC)C(C)C [HYD1]
colony formation of normal CD34+ cells [1]: did not inhibit colony formation; also recorded: did not inhibit differentiation or colony formation | cell death in PBMC [2]: did not induce cell death; also recorded: not sensitive | overt toxicity or weight loss (H929 engrafted tumor): no overt toxicity or weight loss

CC(=O)N[C@@H](CS)C(=O)O [N-acetyl-L-cysteine]
protection of MM cells from HYD1-induced death (MM cells): partially protects

CC(C)C[C@H](NC(=O)[C@H](Cc1ccccc1)NC(=O)c1cnccn1)B(O)O [Velcade]
IC50 values, H929-60 compared to parental H929 (cross-resistance) (H929-60 cells [3]): not resistant; also recorded: not deemed to be significant | velcade induced cell death in HS-5 co-culture, H929-60 (H929-60 cells [4]; 16 nM velcade for 24 hours): not resistant

O=C(O)CCCC[C@@H]1SC[C@@H]2NC(=O)N[C@@H]21 [biotin]
interaction with CD44 (pull-down) (CD44): not | binding of recombinant CD44 (ELISA) (recombinant CD44): relatively no binding

N[C@@H](Cc1ccc(N(CCCl)CCCl)cc1)C(=O)O [melphalan]
IC50 values, H929-60 compared to parental H929 (cross-resistance) (H929-60 cells [3]): not resistant; also recorded: not deemed to be significant | melphalan induced cell death in HS-5 co-culture, H929-60 (H929-60 cells [4]; 15 μM melphalan for 24 hours): not resistant

O=C1c2c(O)ccc(O)c2C(=O)c2c(NCCNCCO)ccc(NCCNCCO)c21 [mitoxantrone]
IC50 values, H929-60 compared to parental H929 (cross-resistance) (H929-60 cells [3]): not resistant

FAM-kikmviswkg [FAM-HYD1]
reduction in FAM-HYD1 binding relative to the parental cell line (H929-60 cells [5]; 6.25 ug/ml FAM-HYD1, FACS): 2.7 fold | FAM-HYD1 binding to the cell surface, H929-60 compared to H929 (H929-60 cells [5]; 6.25, 12.5 μg/ml, on ice 15 minutes): reduced binding; also recorded: decreased FAM-HYD1 binding | localization of FAM-HYD1, H929 (H929 cells): localizes to the plasma membrane | FAM-HYD1 binding to plasma membrane, H929-60 (H929-60 cells [6]): detected

HYD1
Kd [7]: 40.2 nM | Kd [8]: 22.6 nM | Kd [9]: 40.9 nM | Kd [10]: 26.7 nM

WIKSMKIVKG (HYD1 variant) [HYD1S, a scrambled derivative of HYD1]
inhibition of cell adhesion to extracellular matrixes (laminin 5, laminin 332, collagen, fibronectin) [11]: not to inhibit cell adhesion
